Laboratory results taken from US20250312344A1, “COMBINATION THERAPIES USING PRMT5 INHIBITORS AND IMMUNE CHECKPOINT INHIBITORS FOR THE TREATMENT OF CANCER” (MIRATI THERAPEUTICS, INC., priority 2024, published 2025).

Tested on: murine syngeneic cancer model with a homozygous deletion of the Mtap gene (Mtap^DEL)
Experiment: MRTX1719 + immune checkpoint blockade combination study, tumor growth in Mtap^DEL syngeneic model
Assay type: in vivo, BALB/c mice
Experimental: Immune-competent female BALB/c mice were implanted with murine syngeneic cancer model with a homozygous deletion of the Mtap gene (Mtap^DEL). Mouse health was monitored daily, and caliper measurements began when tumors were palpable. Tumor volume measurements were determined utilizing the formula 0.5×L×W2 in which L refers to length and W refers to width of each tumor. When tumors reached approximately 80 mm^3, animals were randomized to receive A) vehicle (0.5% methylcellulose (4000 cps)/0.2% Tween80 in water) and isotype control antibodies), B) immune checkpoint blockade antibodies targeting mouse-Ctla-4 and mouse-Pd-1 and vehicle, C) a PRMT5 inhibitor and isotype control antibodies, or D) the PRMT5 inhibitor and immune checkpoint blockade antibodies targeting mouse-Ctla-4 and mouse-Pd-1. Tumor volumes were measured two or three times per week (n=10/treatment group). Tumor Growth Inhibition (% TGI) was calculated using the formula: (1−(Final Drug Treated Tumor Volume−Initial Drug Treated Tumor Volume)/(Final Vehicle Treated Tumor Volume−Initial Vehicle Treated Tumor Volume))*100.
This example was conducted according to the study procedure described above. The PRMT5 inhibitor was MRTX1719 administered at 100 mg/kg once a day (QD). MRTX1719 used is as described herein.
The immune checkpoint antibody targeting mouse-Ctla-4 was dosed on Day 0 while the antibody targeting mouse-Pd-1 was dosed on Day 0, 3 and 6.

`Cn1ncc(-c2ccc3c(=O)[nH]nc(CN)c3c2)c1-c1c(F)c(Cl)cc(OC2CC2)c1C#N` [MRTX1719] was tested, and the Tumor volume (Study Day 1, MRTX1719 100 mg/kg QD, aCTLA-4 Day 0, aPD-1 Day 0, 3, 6) was 115 mm^3, the Tumor volume (Study Day 3, MRTX1719 100 mg/kg QD, aCTLA-4 Day 0, aPD-1 Day 0, 3, 6) was 118 mm^3 and the Tumor volume (Study Day 6, MRTX1719 100 mg/kg QD, aCTLA-4 Day 0, aPD-1 Day 0, 3, 6) was 154 mm^3. For the same compound, the Tumor volume (Study Day 8, MRTX1719 100 mg/kg QD, aCTLA-4 Day 0, aPD-1 Day 0, 3, 6) was 182 mm^3, the Tumor volume (Study Day 10, MRTX1719 100 mg/kg QD, aCTLA-4 Day 0, aPD-1 Day 0, 3, 6) was 233 mm^3 and the Tumor volume (Study Day 13, MRTX1719 100 mg/kg QD, aCTLA-4 Day 0, aPD-1 Day 0, 3, 6) was 352 mm^3. The Tumor volume (Study Day 15, MRTX1719 100 mg/kg QD, aCTLA-4 Day 0, aPD-1 Day 0, 3, 6) was 558 mm^3, the Tumor volume (Study Day 17, MRTX1719 100 mg/kg QD, aCTLA-4 Day 0, aPD-1 Day 0, 3, 6) was 858 mm^3 and the Tumor volume (Study Day 20, MRTX1719 100 mg/kg QD, aCTLA-4 Day 0, aPD-1 Day 0, 3, 6) was 1010 mm^3. The Tumor volume (Study Day 22, MRTX1719 100 mg/kg QD, aCTLA-4 Day 0, aPD-1 Day 0, 3, 6) was 1171 mm^3, the Tumor volume (Study Day 24, MRTX1719 100 mg/kg QD, aCTLA-4 Day 0, aPD-1 Day 0, 3, 6) was 1312 mm^3 and the Tumor volume (Study Day 27, MRTX1719 100 mg/kg QD, aCTLA-4 Day 0, aPD-1 Day 0, 3, 6) was 1644 mm^3. The Tumor volume (Study Day −1 (before dosing), n=10/group) was 82 mm^3 and the “% TGI (Day 17)” value (Tumor Growth Inhibition vs vehicle, Day 17, MRTX1719 100 mg/kg QD, aCTLA-4 Day 0, aPD-1 Day 0, 3, 6) was 43.5%.
